# Reference: publication PMC7897990, “TriTOX: A novel Trichomonas vaginalis assay platform for high-throughput screening of compound libraries” (International Journal for Parasitology: Drugs and Drug …, 2021)
# Read-outs that look alike come from different tables or passages of the source. Positions of bridges follow the written chain, without caps; N, C: chain ends. Non-standard residues stand in square brackets, D forms with d. Residues, ends and D or L forms follow the SMILES beside them. *: point of attachment. NMePhe(4-NMe2) = CN[C@@H](Cc1ccc(N(C)C)cc1)C(=O)O; Pip(4-oxo) = O=C1CCN[C@H](C(=O)O)C1; Picolinoyl(3-OH) = O=C(c1ncccc1O)*; Phg = N[C@H](C(=O)O)c1ccccc1; dAbu = CC[C@@H](N)C(=O)O; GABA = NCCCC(=O)O
# Tested on: Trichomonas vaginalis G3 trophozoites
# Conditions: for T. vaginalis HTS result in words: 384-well, 25 μL, 10,000 cells/mL, 48 h, biological duplicates, hit = >50% inhibition; for T.vaginalis_Absorbance_Rep1: replicate 1, raw absorbance; for T.vaginalis_Absorbance_Rep2: replicate 2, raw absorbance
# [1] = HTS replicate 1, parasite screen 1 µg/mL
# [2] = HTS replicate 2, parasite screen 1 µg/mL
# [3] = HTS, parasite screen at 1 µg/mL, replicate 1
# [4] = HTS, parasite screen at 1 µg/mL, replicate 2
# [5] = HTS, parasite screen at 1 µg/mL
compound,measurement,setting,value
Nc1cc2nc3ccccc3oc-2cc1=O [Questiomycin A],T.vaginalis_%inb_Rep1,[1],16.02%
same,T.vaginalis_%inb_Rep2,[2],12.32%
CCC(C)C1NC(=O)c2c1n(C)c1ccccc1c2=O (centres unmarked) [Quinolactacin A1],T.vaginalis_%inb_Rep1,[1],10.96%
same,T.vaginalis_%inb_Rep2,[2],16.33%
CC(=O)c1c(O)c(C(C)=O)c(O)c(C(C)=O)c1O [Triacetylphloroglucinol],T.vaginalis_%inb_Rep1,[3],10.38%
same,T.vaginalis_%inb_Rep2,[4],10.12%
CCCNC[C@]1(O)[C@H](C)O[C@@H](O[C@H]2[C@H](C)[C@@H](O[C@@H]3O[C@H](C)C[C@H](N(C)C)[C@H]3O)[C@](C)(O)C[C@@H](C)CN[C@H](C)[C@@H](O)[C@](C)(O)[C@@H](CC)OC(=O)[C@@H]2C)C[C@@]1(C)OC [Tulathromycin],T.vaginalis_%inb_Rep1,[3],10.12%
same,T.vaginalis_%inb_Rep2,[4],14.75%
CC(C)=CC(=O)CC(C)c1ccc(C)cc1 (centres unmarked) [Turmerone],T.vaginalis_%inb_Rep1,[3],9.33%
same,T.vaginalis_%inb_Rep2,[4],14.44%
C/C=C(\C)c1cc(O)c(C)c2c1Oc1cc(O)cc(C)c1C(=O)O2 [Unguinol],T.vaginalis_%inb_Rep1,[3],8.70%
same,T.vaginalis_%inb_Rep2,[4],4.39%
CC(C)C[C@@H]1NC(=O)[C@@H](C(C)C)NC(=O)[C@@H](C)NC(=O)CCCNC(=O)[C@@H](Cc2c[nH]c3ccccc23)NC(=O)[C@@H](C)NC(=O)[C@@H](C(C)C)NC1=O [Unguisin B] (cyclo([GABA][dA][dV]L[dV][dA][dW])),T.vaginalis_%inb_Rep1,[3],10.17%
same,T.vaginalis_%inb_Rep2,[4],14.69%
CC[C@H]1NC(=O)[C@@H](NC(=O)c2ncccc2O)[C@@H](C)OC(=O)[C@H](c2ccccc2)NC(=O)[C@@H]2CC(=O)CCN2C(=O)[C@H](Cc2ccc(N(C)C)cc2)N(C)C(=O)[C@@H]2CCCN2C1=O [Virginiamycin B] ({Picolinoyl(3-OH)}-T[dAbu]P[NMePhe(4-NMe2)][Pip(4-oxo)][Phg]; ester 1-C),T.vaginalis_%inb_Rep1,[3],8.39%
same,T.vaginalis_%inb_Rep2,[4],11.09%
CCC1NC(=O)C(NC(=O)c2ncccc2O)C(C)OC(=O)C(c2ccccc2)NC(=O)C2CC(=O)CCN2C(=O)C(Cc2ccccc2)N(C)C(=O)C2CCCN2C1=O (centres unmarked) [Virginiamycin S1],T.vaginalis_%inb_Rep1,[3],9.96%
same,T.vaginalis_%inb_Rep2,[4],3.72%
O=c1[nH]c2ccccc2c(-c2cccc(O)c2)c1O [Viridicatol],T.vaginalis_%inb_Rep1,[3],6.71%
same,T.vaginalis_%inb_Rep2,[4],14.99%
"COc1ccc(C[C@H]2NC[C@H](O)[C@H]2OC(C)=O)cc1 [anisomycin, reference compound]",T. vaginalis HTS result in words,,supported the anti-trichomonal activity
"COc1ccc2nc(C(=O)N[C@@H]3COC(=O)[C@H](C(C)(C)O)N(C)C(=O)CN(C)C(=O)CNC(=O)[C@@H]4[C@@H](OC(C)=O)CC=NN4C(=O)[C@H](NC(=O)c4nc5ccc(OC)cc5cc4O)COC(=O)[C@H](C(C)(C)O)N(C)C(=O)CN(C)C(=O)CNC(=O)[C@@H]4[C@@H](OC(C)=O)CC=NN4C3=O)c(O)cc2c1 [luzopeptin A, reference compound]",T. vaginalis HTS result in words,,partial hits
"CN[C@@H]1C[C@H]2O[C@@](C)([C@@H]1OC)n1c3ccccc3c3c4c(c5c6ccccc6n2c5c31)C(=O)NC4 [staurosporine, reference compound]",T. vaginalis HTS result in words,,supported the anti-trichomonal activity
"CC(=O)Nc1c2sscc-2n(C)c1=O [thiolutin, reference compound]",T. vaginalis HTS result in words,,supported the anti-trichomonal activity
"O=C(O)c1c(=O)cccc2ssc12 [tropodithietic acid, reference compound]",T. vaginalis HTS result in words,,partial hits
same,T.vaginalis_%inb_Rep1,[3],11.01%
same,T.vaginalis_%inb_Rep2,[4],97.50%
Elaiophylin,T.vaginalis_Absorbance_Rep1,[5],0.954
same,T.vaginalis_Absorbance_Rep2,[5],0.689
Enniatin A,T.vaginalis_Absorbance_Rep1,[5],0.983
same,T.vaginalis_Absorbance_Rep2,[5],0.865
Enniatin A1,T.vaginalis_Absorbance_Rep1,[5],0.98
same,T.vaginalis_Absorbance_Rep2,[5],0.8
Milbemycin oxime,T.vaginalis_%inb_Rep1,[1],12.53%
same,T.vaginalis_%inb_Rep2,[2],12.96%
Pyripyropene A,T.vaginalis_%inb_Rep1,[1],11.61%
same,T.vaginalis_%inb_Rep2,[2],12.83%
ikarugamycin [reference compound],T. vaginalis HTS result in words,,supported the anti-trichomonal activity
